Measured values from US5880099A, “Inositol polyphosphates and methods of using same” (The Regents of the University of California, priority 1997, dated 1999).
“Also recorded” adds a separate entry of the source.

Experiments:
Assay type in all cases: cell-based, human
[1] = test system: colonic epithelial T84 cells (calcium-mediated chloride ion secretion); test: Inhibition of calcium-mediated chloride ion secretion (Table I summary)
Description: The invention provides compounds that are agonists or antagonists of inositol polyphosphates. Inositol polyphosphate derivatives can function as inositol polyphosphate agonists and antagonists. The effects of compounds of the invention on Ins(3,4,5,6)P4 - and PtdInsP3 -mediated inhibition of calcium-mediated chloride ion secretion are described in the Examples and summarized in Table I.
(§1) Enantiomerically pure 1,2-Bt2 -Ins(3,4,5,6)P4 /AM was synthesized to determine if 1,2-Bt2 -Ins(3,4,5,6)P4 /AM mediates the uncoupling of chloride ion secretion from intracellular calcium concentrations. T84 cells (passages 18-48) were maintained as described previously (Weymer, et al., J. Clin. Invest. 76:1828 (1985)), which is incorporated herein by reference. After 7-10 days of incubation on SNAP-WELLS (Corning Costar; Cambridge, Mass.), monolayers had formed tight junctions. Cell monolayers were preincubated with 100, 200 or 400 μM Bt2 -Ins(3,4,5,6)P4 /AM for 30 min prior to mounting. After an additional 30 min, 0.1 mM histamine was added and chloride ion secretion was monitored. Chloride ion secretion was measured as short circuit current (Isc) across T84 monolayers grown to confluence and mounted in Ussing chambers equipped with voltage clamps (Physiologic Instruments; San Diego, Calif.). Data was acquired and analyzed using "Acquire and Analyze" software (Physiologic Instruments).

[2] = test system: T84 colonic epithelial cells (carbachol-mediated inhibition of chloride ion secretion); test: Reversal of carbachol-mediated inhibition of thapsigargin-stimulated chloride ion secretion in T84 cells; conditions: carbachol 10^-4 M, thapsigargin 1 μM
Protocol: T84 colonic epithelial cells were treated with D,L-1,2-cyclohexylidene-Ins(3,4,5,6)P4 /AM, 1-Bu-2-Bt-Ins(3,4,5,6)P4 /AM, Bu2 -Ins(3,4,5,6)P4 /AM, 3-Bt-2-Bu-Ins(1,4,5,6)P4 /AM, Bu2 -Ins(1,4,5,6)P4 /AM, 1-Bt-2-Bu-Ins(3,4,5,6)P4 /AM or 3-Bu-2-Bt-Ins(1,4,5,6)P4 /AM and the short circuit current was measured.
One set of cells was preincubated for 30 min with an inositol polyphosphate derivative. The other two sets of cells were preincubated with vehicle, alone. Measurement of Isc was initiated at time 0. At 5 min, carbachol (10^-4 M) was added to one set of cells preincubated with vehicle alone (designated "Carbachol" in FIG. 5) and to the set of cells preincubated with inositol polyphosphate derivatives (designated "Carbachol+D,L-1,2-Cyclohexylidene-Ins(3,4,5,6)P4 /AM" in FIG. 5A). At 30 min, 1 μM thapsigargin was added. Data were collected for n=4 to 6 experiments.

[3] = test system: T84 cells (Ins(3,4,5,6)P4 inhibition of histamine-stimulated chloride ion secretion); test: Reversal of Bt2 -Ins(3,4,5,6)P4 /AM inhibition of histamine-stimulated chloride ion secretion in T84 cells; conditions: for reversal of the inhibitory effect of Bt2 -Ins(3,4,5,6)P4 /AM / Ins(3,4,5,6)P4-mediated inhibition (in words): T84 cells, histamine-stimulated
Protocol: (§2) Initial studies were directed towards understanding structural determinants of Ins(3,4,5,6)P4 responsible for the inhibitory effect on calcium-mediated chloride ion secretion. A series of cell permeable inositol polyphosphate derivatives were synthesized. These derivatives contained either one or two non-hydrolyzable chemical groups on the 1, 2 or 3 position. T84 monolayers were preincubated for 30 minutes with 200 μM of 2-Bt-1-Me-Ins(3,4,5,6)P4 /AM, Me2 -Ins(3,4,5,6)P4 /AM, Me2 -Ins(1,4,5,6)P4 /AM or 2-Bt-3-Me-Ins(1,4,5,6)P4 /AM.
(§3) Following the incubation, cells were mounted in Ussing chambers. Calcium-mediated chloride ion secretion was stimulated with histamine (10^-4 M). Control values were the response to histamine in coincubated monolayers. Data are represented as mean peak ΔIsc ±SEM, expressed as % control for 8 to 10 experiments. Significant differences were identified using the Student's two-tailed t test.
T84 cells were preincubated with cell permeant inositol polyphosphates as described above to determine if any of the inositol polyphosphate derivatives function as antagonists of Ins(3,4,5,6)P4 inhibition of calcium-mediated chloride ion secretion. Following histamine stimulation, short circuit current was measured. […] The % control shown in FIG. 3 represents ΔIsc over peak Isc in control monolayers stimulated with histamine. However, […]

[4] = test system: T84 cells (histamine-stimulated chloride ion secretion); test: Histamine-stimulated chloride ion secretion (short circuit current) in T84 monolayers; conditions: Homo sapiens, T84, 0.5 h; 200 μM compound alone; mean ± SEM; read-out: Peak ΔIsc (% Control) after histamine (100 μM)
Protocol: as §1, with “T84 cells (passages 18-48) were maintained as described previously (Weymer, et al., J. Clin. Invest. 76:1828 (1985)), which is incorporated herein by reference.” left out
as §2, §3

[5] = test system: T84 cells (carbachol-stimulated chloride ion secretion); test: Carbachol-stimulated (calcium-mediated) chloride ion secretion in T84 cells; conditions: for effect on carbachol-stimulated / calcium-mediated chloride ion secretion (in words): T84 cells, preincubation
Protocol: The cell permeable derivative D,L-Bt3 -Ins(1,3,4)P3 /AM was synthesized. Colonic epithelial T84 cells were preincubated for 30 min with 400 μM D,L-Bt3 -Ins(1,3,4)P3 /AM prior to mounting in Ussing chambers and measuring ΔIsc. At 10 min, carbachol (10^-4 M) was added to transiently stimulate calcium-mediated chloride ion secretion. Data were the average of 8 experiments with p<0.04, unpaired, two-sided student's t-test. […]

Row | Compound | Mechanism and Inositol Polyphosphate Pathway Affected ([1]; pathway: Ins (3,4,5,6)P4) | reversal of carbachol-mediated inhibition of chloride ion secretion (in words) [2] | reversal of the inhibitory effect of Bt2 -Ins(3,4,5,6)P4 /AM / Ins(3,4,5,6)P4-mediated inhibition (in words) [3] | effect on carbachol-stimulated / calcium-mediated chloride ion secretion (in words) [5] | also measured
1 | CC(=O)OCOP(=O)(OCOC(C)=O)O[C@H]1[C@H](OP(=O)(OCOC(C)=O)OCOC(C)=O)[C@@H](OP(=O)(OCOC(C)=O)OCOC(C)=O)[C@H]2OC3(CCCCC3)O[C@H]2[C@@H]1OP(=O)(OCOC(C)=O)OCOC(C)=O (relative stereo) [rac-1,2-Di-O-cycloheylidene-myo-inositol 3,4,5,6-tetrakisphosphate octakis(acetoxymethyl)ester] | Antagonist of | enhanced chloride ion secretion; also recorded: reversed the inhibitory effect of carbachol on calcium-mediated chloride ion secretion; also recorded: reversed the carbachol-mediated inhibition of chloride ion secretion stimulated by thapsigargin |  |  | 
2 | CCCCO[C@@H]1[C@H](OC(=O)CCC)[C@H](OP(=O)(OCOC(C)=O)OCOC(C)=O)[C@@H](OP(=O)(OCOC(C)=O)OCOC(C)=O)[C@H](OP(=O)(OCOC(C)=O)OCOC(C)=O)[C@H]1OP(=O)(OCOC(C)=O)OCOC(C)=O [1-Bu-2-Bt-Ins(3,4,5,6)P4 /AM, D-1-O-Butyl-2-O-butyryl-myo-inositol 3,4,5,6-tetrakisphosphate octakis(acetoxymethyl)ester] | Antagonist of | enhanced chloride ion secretion; also recorded: reversed the carbachol-mediated inhibition of chloride ion secretion stimulated by thapsigargin | reversed Ins(3,4,5,6)P4 -mediated inhibition of chloride ion secretion |  | 
3 | CCCCO[C@@H]1[C@H](OCCCC)[C@@H](OP(=O)(OCOC(C)=O)OCOC(C)=O)[C@H](OP(=O)(OCOC(C)=O)OCOC(C)=O)[C@@H](OP(=O)(OCOC(C)=O)OCOC(C)=O)[C@@H]1OP(=O)(OCOC(C)=O)OCOC(C)=O [Bu2 -Ins(1,4,5,6)P4 /AM, D-2,3-Di-O-butyl-myo-inositol 1,4,5,6-tetrakisphosphate octakis(acetozymethyl)ester] |  | enhanced chloride ion secretion |  |  | reversal of carbachol-mediated inhibition of chloride ion secretion (in words) ([2]; listed as 2,3-Bu2 -Ins(1,4,5,6)P4 /AM): did not reverse carbachol-mediated inhibition of chloride ion secretion stimulated by thapsigargin
4 | CO[C@@H]1[C@H](OC)[C@H](OP(=O)(OCOC(C)=O)OCOC(C)=O)[C@@H](OP(=O)(OCOC(C)=O)OCOC(C)=O)[C@H](OP(=O)(OCOC(C)=O)OCOC(C)=O)[C@H]1OP(=O)(OCOC(C)=O)OCOC(C)=O [Me2 -Ins(3,4,5,6)P4 /AM, 1,2-di-O-methyl-myo-inositol 3,4,5,6-Tkphosphate oct (acetoxymethyl) ester] | Antagonist of |  | reversed the inhibitory effect of Bt2 -Ins(3,4,5,6)P4 /AM |  | activity at 200 µM [4]: 104 ± 11.1%; Peak ΔIsc (% Control) after histamine (100 μM) ([3]; 200 μM antagonist + 200 μM Bt2 Ins (3,4,5,6)P4 /AM, mean ± SEM, 30 min): 107.13 ± 10.2 % Control; reversal of the inhibitory effect of Bt2 -Ins(3,4,5,6)P4 /AM / Ins(3,4,5,6)P4-mediated inhibition (in words) ([3]; listed as Me2 -Ins-(3,4,5,6)P4 /AM): reversed Ins(3,4,5,6)P4 -mediated inhibition of chloride ion secretion
5 | di-palmitoyl-D,L-O-butyryl-phosphatidyl inositol 3,4,5-trisphosphate heptakis (acetoxymethyl) ester [diC16 -Bt-PtdInsP3 /AM] |  |  |  | inhibited calcium-mediated chloride ion secretion | Mechanism and Inositol Polyphosphate Pathway Affected ([1]; pathway: PtdInsP3): Agonist of; inhibition of calcium-mediated chloride ion secretion ([5]; pretreatment of T84 cells, FIG. 7): up to 74%
6 | phosphatidylinositol trisphosphate [PtdInsP3, reference compound] |  |  |  | No inhibition of calcium-mediated chloride ion secretion | 
